The source of these data is patent US20100168133A1, “USE OF SUBSTITUTED QUINOLINE DERIVATIVES FOR THE TREATMENT OF DRUG RESISTANT MYCOBACTERIAL DISEASES” (priority 2004, published 2010).

One experiment relates to M. avium. Format: cell-based. Conditions: M. avium resistant to fluoroquinolones, mutation Ala83Val (Table 9).
Another experiment deals with M. fortuitum. Nature of the experiment: In-vitro MIC in solid medium against fluoroquinolone-resistant clinical isolates. The experiment is classed as cell-based. Conditions: Mycolicibacterium fortuitum, no mutation indicated, Table 10 1st strain.
Experiment [1] concerns M. tuberculosis H37Rv strain. The experiment is classed as in vivo, Swiss female mice.
The subject of experiment [2] is M. tuberculosis strain H37Rv. The experiment in a line: In vivo susceptibility of M. tuberculosis to compound 12 in combination with other antimycobacterial agents, lung CFU (Tables 13, 14). Conditions: for CFU 1 month (lung) / CFU 2 months (lung): once-a-day group (gavage 5 days/week from day 14), D0 = 7.23; for CFU 1 month (lung): lung CFU after 1 month of treatment; for CFU 2 months (lung): lung CFU after 2 months of treatment; for Decrease 1 mo vs D0 (lung CFU) / Decrease 2 mo vs D0 (lung CFU) / % positive mice 2nd month: once-a-day group; for Decrease 1 mo vs D0 (lung CFU): 1 month of treatment versus D0 (7.23); for Decrease 2 mo vs D0 (lung CFU): 2 months of treatment versus D0 (7.23); for % positive mice 2nd month: culture-positive mice / mice examined after 2 months; for % positive mice / lung CFU*: once-a-week group, after 2 months of treatment; for lung CFU*: by gavage, D0 value 7.23. On the set-up: species or system Swiss mice.

The mark [3] stands for this setting: […], treatment from day 14, five times weekly, title: 2 months (footnote: four weeks, sacrifice day 42).

In brackets after ≈: the same amount, converted by molar mass. Where two headings read alike, the source gives them in different places.

In the case of `COc1nc2ccc(Br)cc2cc1[C@@H](c1ccccc1)[C@@](O)(CCN(C)C)c1cccc2ccccc12` [Compound 12, (αS,βR)-6-bromo-α-[2-(dimethylamino)ethyl]-2-methoxy-α-1-naphthalenyl-β-phenyl-3-quinolineethanol], the MIC with M. avium was 0.007 µg/mL (≈ 0.0126 µM). The compound further yielded an MIC in the experiment on M. fortuitum of 0.01 µg/mL (≈ 0.018 µM). For the same compound, in experiment [1] (setting [3]), the “Mean CFU (log10) per Lung” value worked out at 0.22 ± 0.32 log10, the “Mean CFU (log10) per Spleen” value is 1.24 ± 0.50 log10 and the “Spleen weight (mean)” value was determined as 248 ± 47 mg. Besides, in experiment [2], the “CFU 1 month (lung)” value was 4.14, the “CFU 2 months (lung)” value amounted to 2.28, the “Decrease 1 mo vs D0 (lung CFU)” value is −3.09 and the “Decrease 2 mo vs D0 (lung CFU)” value is listed as −4.95. In addition, in experiment [2], the “% positive mice 2nd month” value is on record as 8/10, the “% positive mice” value is 9/9 and the “lung CFU*” value is reported as 1.99 +/− 0.75.

On to `CC1COc2c(N3CCN(C)CC3)c(F)cc3c(=O)c(C(=O)O)cn1c23` (stereo not drawn) [Ofloxacin, ofloxacin], for which the MIC with M. fortuitum worked out at 1 µg/mL (≈ 2.77 µM).

Turning to `CO[C@H]1/C=C/O[C@@]2(C)Oc3c(C)c(O)c4c(O)c(c(/C=N/N5CCN(C)CC5)c(O)c4c3C2=O)NC(=O)/C(C)=C\C=C\[C@H](C)[C@H](O)[C@@H](C)[C@@H](O)[C@@H](C)[C@H](OC(C)=O)[C@@H]1C` [Rifampin, rifampin], the MIC against M. avium came to 16 µg/mL (≈ 19.4 µM). The MIC in the experiment on M. fortuitum came out at 128 µg/mL (≈ 156 µM). In addition, in experiment [1] (mouse, in vivo), the “Mean CFU (log10) per Lung” value stood at 1.89 ± 0.50 log10, the “Mean CFU (log10) per Spleen” value is given as 2.75 ± 0.34 log10 and the “Spleen weight (mean)” value came out at 391 ± 70 mg. In addition, in experiment [2], the “CFU 1 month (lung)” value is given as 6.01, the “CFU 2 months (lung)” value is given as 4.07, the “Decrease 1 mo vs D0 (lung CFU)” value is recorded as −1.22 and the “Decrease 2 mo vs D0 (lung CFU)” value is −3.16. For the same compound, the “% positive mice 2nd month” value in experiment [2] is reported as 10/10.

Regarding `COc1c(N2C[C@@H]3CCCN[C@@H]3C2)c(F)cc2c(=O)c(C(=O)O)cn(C3CC3)c12` [M, moxifloxacin], in experiment [1] (setting [3]), the “Mean CFU (log10) per Lung” value was 2.89 ± 0.57 log10, the “Mean CFU (log10) per Spleen” value amounted to 3.53 ± 0.34 log10 and the “Spleen weight (mean)” value is on record as 400 ± 99 mg. Also, in experiment [2], the “CFU 1 month (lung)” value is on record as 5.51, the “CFU 2 months (lung)” value came out at 4.3, the “Decrease 1 mo vs D0 (lung CFU)” value was −1.72 and the “Decrease 2 mo vs D0 (lung CFU)” value is −2.93. In addition, in experiment [2], the “% positive mice 2nd month” value is recorded as 10/10, the “% positive mice” value was 7/7 and the “lung CFU*” value is 6.44 +/− 0.5.
